# Source: patent US9763445B2, “Safened herbicidal compositions comprising a pyridine carboxylic acid herbicide” (Dow AgroSciences, LLC, priority 2014, dated 2017)
# Columns and labels:
# common sunflower (HELAN) = experiment: Postemergence greenhouse trial, % visual injury on common sunflower; type: in vivo, Helianthus annuus
# Method: (§1) Seeds of the desired test plant species were planted in Sun Gro MetroMix® 306 planting mixture, which typically has a pH of 6.0 to 6.8 and an organic matter content of about 30 percent, in plastic pots with a surface area of 103.2 square centimeters (cm^2). When required to ensure good germination and healthy plants, a fungicide treatment and/or other chemical or physical treatment was applied. The plants were grown for 7-36 days (d) in a greenhouse with an approximate 14-hour (h) photoperiod which was maintained at about 23° C. during the day and 22° C. during the night. Nutrients and water were added on a regular basis and supplemental lighting was provided with overhead metal halide 1000-Watt lamps as necessary. The plants were employed for testing when they reached the second or third true leaf stage.
# (§2) Weighed amounts of technical material were dissolved in a volume of 97:3 volume per volume (v/v) acetone/dimethyl sulfoxide (DMSO) to stock solutions. […] The concentrated stock solutions were diluted with an aqueous mixture of 1.5% v/v of Agri-dex crop oil concentrate to provide the appropriate application rates. Compound requirements are based upon a 12 milliliter (mL) application volume at a rate of 187 liters per hectare (L/ha). Stocks solutions of the safeners were prepared following the same procedure. Spray solutions of the safeners and experimental compound mixtures were prepared by adding the stock solutions to the appropriate amount of dilution solution to form a 12 mL spray solution in two-way combinations. Formulated compounds were applied to the plant material with an overhead Mandel track sprayer equipped with 8002E nozzles calibrated to deliver 187 L/ha over an application area of 0.503 square meters (m^2) at a spray height of 18 inches (43 centimeters (cm)) above average plant canopy. Control plants were sprayed in the same manner with the solvent blank. All herbicide application (component a) rates are in g ae/ha and all safener (component b) rates are in g ai/ha.
# (§3) The treated plants and control plants were placed in a greenhouse as described above and watered by sub-irrigation to prevent wash-off of the test compounds. After 20-22 d, the condition of the test plants as compared with that of the control plants was determined visually and scored on a scale of 0 to 100 percent where 0 corresponds to no injury and 100 corresponds to complete kill. The condition of the test plants was compared with that of the control plants as determined visually and scored on a scale of 0 to 100 percent, where 0 corresponds to no injury and 100 corresponds to complete kill. Colby's equation was used to determine the herbicidal effects expected from the mixtures.
# (§4) The safener cloquintocet-acid and a number of agriculturally acceptable esters and salts (-mexyl, -dimethylammonium salt and -triethylammonium salt) were combined in varying ratios with compound 1 and applied to spring wheat (TRZAS), winter wheat (TRZAW), and spring barley (HORVS), and the phytotoxicity of the herbicidal compositions was measured. In addition, the efficacy of the herbicidal composition on pigweed (AMARE, Amaranthus retroflexus), nutsedge (CYPES, Cyperus esculentus), common sunflower (HELAN, Helianthus annuus), and common sorghum (SORVU, Sorghum vulgare).
# chickweed (STEME) = experiment: Postemergence greenhouse trial, % visual injury on chickweed; type: in vivo, Stellaria media; conditions: for % visual injury, Ob: alone, 35 g/ha; for % visual injury, observed (Ob): STEME
# Method: as §1, §2, §3
# (§5) The safener cloquintocet-mexyl was combined with compound 1, compound 2, compound 4, compound 5, and compound 6, and applied to corn/maize (ZEAMX) and spring wheat (TRZAS) and the phytotoxicity of the herbicidal compositions was measured. In addition, the efficacy of the herbicidal composition on velvetleaf (ABUTH, Abutilon theophrasti), pigweed (AMARE, Amaranthus retroflexus), winter rape (BRSNW, Brassica napus), lambsquarters (CHEAL, Chenopodium album), thistle (CIRAR, Cirsium arvense), nutsedge (CYPES, Cyperus esculentus), poinsettia (EPHHL, Euphorbia heterophylla), wild buckwheat (POLCO, Polygonum convolvulus), giant foxtail (SETFA, Setaria faberi), and chickweed (STEME, Stellaria media) was evaluated. […]
# wild buckwheat (POLCO) = experiment: Postemergence greenhouse trial, % visual injury on wild buckwheat; type: in vivo, Polygonum convolvulus; conditions: for % visual injury, observed (Ob): POLCO; for % visual injury, Ob: alone, 35 g/ha
# Method: as §1, §2, §3
# (§6) The safener cloquintocet-mexyl was combined with compound 1, compound 2, compound 4, compound 5, and compound 6, and applied to corn/maize (ZEAMX) and spring wheat (TRZAS) and the phytotoxicity of the herbicidal compositions was measured. In addition, the efficacy of the herbicidal composition on velvetleaf (ABUTH, Abutilon theophrasti), pigweed (AMARE, Amaranthus retroflexus), winter rape (BRSNW, Brassica napus), lambsquarters (CHEAL, Chenopodium album), thistle (CIRAR, Cirsium arvense), nutsedge (CYPES, Cyperus esculentus), poinsettia (EPHHL, Euphorbia heterophylla), wild buckwheat (POLCO, Polygonum convolvulus), giant foxtail (SETFA, Setaria faberi), and chickweed (STEME, Stellaria media) was evaluated.
# (§7) The safener cloquintocet-mexyl was combined with compound 1, compound 2, compound 3, compound 7, compound 8, compound 9, compound 10, compound 11, compound 12, compound 13, compound 14, compound 15, compound 16, compound 17, compound 18, compound 19, and compound 20, and applied to spring wheat (TRZAS), winter wheat (TRZAW), and spring barley (HORVS) and the phytotoxicity of the herbicidal compositions was measured. […]
# velvetleaf (ABUTH) = experiment: Postemergence greenhouse trial, % visual injury on velvetleaf; type: in vivo, Abutilon theophrasti; conditions: alone, 35 g/ha
# Method: as §1, §2, §3, §6, §7
# wild chamomile (MATCH) = experiment: Postemergence greenhouse trial, % visual injury on wild chamomile; type: in vivo, Matricaria chamomilla
# Method: as §1, §2
# as §3, with “mixtures. […]” for “mixtures.”
# poinsettia (EPHHL) = experiment: Postemergence greenhouse trial, % visual injury on poinsettia; type: in vivo, Euphorbia heterophylla; conditions: alone, 35 g/ha
# Method: as §1
# Weighed amounts of technical material were dissolved in a volume of 97:3 volume per volume (v/v) acetone/dimethyl sulfoxide (DMSO) to stock solutions. […] The concentrated stock solutions were diluted with an aqueous mixture of 1.5% v/v of Agri-dex crop oil concentrate to provide the appropriate application rates. Compound requirements are based upon a 12 milliliter (mL) application volume at a rate of 187 liters per hectare (L/ha). Stocks solutions of the safeners were prepared following the same procedure. […]
# as §3, with “Colby's equation was used to determine the herbicidal effects expected from the mixtures.” left out
# as §5
# common sorghum (SORVU) = experiment: Postemergence greenhouse trial, % visual injury on common sorghum; type: in vivo, Sorghum vulgare; conditions: for % visual injury, observed (Ob): SORVU
# Method: as §1, §2
# as §3, with “mixtures. […]” for “mixtures.”
# as §4
# wild pansy (VIOTR) = experiment: Postemergence greenhouse trial, % visual injury on wild pansy; type: in vivo, Viola tricolor
# Method: as §1, §2
# as §3, with “mixtures. […]” for “mixtures.”
# [1] = compound 2 4.380 + CQC-m 0 g/ha
smiles,measurement,setting,value
"CCCCCC(C)OC(=O)COc1ccc(Cl)c2cccnc12 (centres unmarked) [CQC-m, cloquintocet-mexyl, reference compound]","% visual injury, observed (Ob)",common sunflower (HELAN); safener alone 2.5 g/ha,0%
same,"% visual injury, observed (Ob)",common sunflower (HELAN); safener alone 5 g/ha,0%
same,"% visual injury, observed (Ob)",common sunflower (HELAN); safener alone 10 g/ha,0%
same,"% visual injury, observed (Ob)",common sunflower (HELAN); safener alone 20 g/ha,0%
same,"% visual injury, Ob",chickweed (STEME),0%
same,"% visual injury, observed (Ob)",wild buckwheat (POLCO); compound 8 0 + CQC-m 4.375 g/ha,0%
same,"% visual injury, observed (Ob)",wild buckwheat (POLCO); compound 8 0 + CQC-m 8.75 g/ha,0%
same,"% visual injury, observed (Ob)",wild buckwheat (POLCO); compound 8 0 + CQC-m 17.5 g/ha,0%
same,"% visual injury, observed (Ob)",wild buckwheat (POLCO); compound 8 0 + CQC-m 35 g/ha,0%
same,"% visual injury, observed (Ob)",wild buckwheat (POLCO); compound 8 0 + CQC-m 70 g/ha,0%
same,"% visual injury, Ob",wild buckwheat (POLCO),0%
same,"% visual injury, Ob",velvetleaf (ABUTH),0%
same,"% visual injury, Ob","wild chamomile (MATCH); compound 0, CQC-m 4.375 g/ha",0%
same,"% visual injury, Ob","wild chamomile (MATCH); compound 0, CQC-m 8.75 g/ha",0%
same,"% visual injury, Ob","wild chamomile (MATCH); compound 0, CQC-m 17.5 g/ha",0%
same,"% visual injury, Ob","wild chamomile (MATCH); compound 0, CQC-m 35 g/ha",0%
same,"% visual injury, Ob","wild chamomile (MATCH); compound 0, CQC-m 70 g/ha",0%
same,"% visual injury, Ob",poinsettia (EPHHL),0%
same,"% visual injury, observed (Ob)",common sorghum (SORVU); safener alone 2.5 g/ha,0%
same,"% visual injury, observed (Ob)",common sorghum (SORVU); safener alone 5 g/ha,0%
same,"% visual injury, observed (Ob)",common sorghum (SORVU); safener alone 10 g/ha,0%
same,"% visual injury, observed (Ob)",common sorghum (SORVU); safener alone 20 g/ha,0%
same,"% visual injury, Ob","common sorghum (SORVU); alone, 35 g/ha",0%
same,"% visual injury, Ob","wild pansy (VIOTR); VIOTR, 4.375 g/ha, applied alone",0%
same,"% visual injury, Ob","wild pansy (VIOTR); VIOTR, 8.75 g/ha, applied alone",0%
same,"% visual injury, Ob","wild pansy (VIOTR); VIOTR, 17.5 g/ha, applied alone",0%
same,"% visual injury, Ob","wild pansy (VIOTR); VIOTR, 35 g/ha, applied alone",0%
same,"% visual injury, Ob","wild pansy (VIOTR); VIOTR, 70 g/ha, applied alone",0%
same,"% visual injury, Ob","wild pansy (VIOTR); VIOTR, compound 0 g/ha, CQC-m 4.375 g/ha",0%
same,"% visual injury, Ob","wild pansy (VIOTR); VIOTR, compound 0 g/ha, CQC-m 8.75 g/ha",0%
same,"% visual injury, Ob","wild pansy (VIOTR); VIOTR, compound 0 g/ha, CQC-m 17.5 g/ha",0%
same,"% visual injury, Ob","wild pansy (VIOTR); VIOTR, compound 0 g/ha, CQC-m 35 g/ha",0%
same,"% visual injury, Ob","wild pansy (VIOTR); VIOTR, compound 0 g/ha, CQC-m 70 g/ha",0%
same,"% visual injury, Ob","wild pansy (VIOTR); alone, 35 g/ha",0%
COC(=O)c1nc(-c2ccc3cc[nH]c3c2F)c(F)c(N)c1OC [compound 12],"% visual injury, Ob","wild chamomile (MATCH); compound 4.380 g/ha, CQC-m 0",5%
same,"% visual injury, Ob","wild chamomile (MATCH); compound 8.75 g/ha, CQC-m 0",3%
same,"% visual injury, Ob","wild chamomile (MATCH); compound 17.5 g/ha, CQC-m 0",7%
same,"% visual injury, Ob","wild chamomile (MATCH); compound 35 g/ha, CQC-m 0",10%
same,"% visual injury, Ob","wild chamomile (MATCH); compound 70 g/ha, CQC-m 0",13%
Nc1cc(-c2ccc3cc[nH]c3c2F)nc(C(=O)O)c1Cl [compound 15],"% visual injury, Ob","wild pansy (VIOTR); VIOTR, compound 4.375 g/ha, CQC-m 0 g/ha",0%
same,"% visual injury, Ob","wild pansy (VIOTR); VIOTR, compound 8.75 g/ha, CQC-m 0 g/ha",10%
same,"% visual injury, Ob","wild pansy (VIOTR); VIOTR, compound 17.5 g/ha, CQC-m 0 g/ha",10%
same,"% visual injury, Ob","wild pansy (VIOTR); VIOTR, compound 35 g/ha, CQC-m 0 g/ha",20%
same,"% visual injury, Ob","wild pansy (VIOTR); VIOTR, compound 70 g/ha, CQC-m 0 g/ha",30%
Nc1c(F)c(-c2ccc3cc[nH]c3c2F)nc(C(=O)OCc2ccccc2)c1Cl [compound 2],"% visual injury, observed (Ob)",chickweed (STEME); [1],25%
same,"% visual injury, observed (Ob)",chickweed (STEME); compound 2 8.75 + CQC-m 0 g/ha,68%
same,"% visual injury, observed (Ob)",chickweed (STEME); compound 2 17.5 + CQC-m 0 g/ha,97%
same,"% visual injury, observed (Ob)",chickweed (STEME); compound 2 35 + CQC-m 0 g/ha,100%
same,"% visual injury, observed (Ob)",chickweed (STEME); compound 2 70 + CQC-m 0 g/ha,100%
same,"% visual injury, Ob",wild buckwheat (POLCO),100%
same,"% visual injury, Ob",velvetleaf (ABUTH),80%
same,"% visual injury, observed (Ob)",wild chamomile (MATCH); [1],30%
same,"% visual injury, observed (Ob)",wild chamomile (MATCH); compound 2 8.75 + CQC-m 0 g/ha,58%
same,"% visual injury, observed (Ob)",wild chamomile (MATCH); compound 2 17.5 + CQC-m 0 g/ha,91%
same,"% visual injury, observed (Ob)",wild chamomile (MATCH); compound 2 35 + CQC-m 0 g/ha,98%
same,"% visual injury, observed (Ob)",wild chamomile (MATCH); compound 2 70 + CQC-m 0 g/ha,100%
same,"% visual injury, Ob",poinsettia (EPHHL),100%
Nc1c(F)c(-c2ccc3cc[nH]c3c2F)nc(C(=O)O)c1Cl [compound 1],"% visual injury, observed (Ob)",common sunflower (HELAN); compound 1 alone 20 g/ha,98%
same,"% visual injury, observed (Ob)",common sunflower (HELAN); compound 1 alone 40 g/ha,100%
same,"% visual injury, Ob",chickweed (STEME),100%
same,"% visual injury, Ob",wild buckwheat (POLCO),99%
same,"% visual injury, observed (Ob)",common sorghum (SORVU); compound 1 alone 20 g/ha,18%
same,"% visual injury, observed (Ob)",common sorghum (SORVU); compound 1 alone 40 g/ha,68%
COC(=O)c1nc(-c2ccc3cc[nH]c3c2F)c(F)c(N)c1Cl [compound 8],"% visual injury, observed (Ob)",wild buckwheat (POLCO); compound 8 4.380 + CQC-m 0 g/ha,85%
same,"% visual injury, observed (Ob)",wild buckwheat (POLCO); compound 8 8.75 + CQC-m 0 g/ha,97%
same,"% visual injury, observed (Ob)",wild buckwheat (POLCO); compound 8 17.5 + CQC-m 0 g/ha,93%
same,"% visual injury, observed (Ob)",wild buckwheat (POLCO); compound 8 35 + CQC-m 0 g/ha,100%
same,"% visual injury, observed (Ob)",wild buckwheat (POLCO); compound 8 70 + CQC-m 0 g/ha,100%
